Assay results as given in US10414741B2, “Amorphous vortioxetine and salts thereof” (CADILA HEALTHCARE LIMITED, priority 2013, dated 2019).

Assay: stability of amorphous form under normal stability conditions
Format: physicochemical
From the text: Therefore, there is no physical change observed from amorphous form to crystalline form during the stability.
In further aspect, the stable amorphous vortioxetine free base or vortioxetine hydrobromide can be stored under nitrogen atmosphere and packed in a double polythene bag tied with a thread, keeping primary packing containing amorphous vortioxetine or vortioxetine hydrobromide inside a black color polyethylene bag containing oxygen busters and sealing it, placing above the double polyethylene bag inside a triple laminated bag optionally containing oxygen busters and sealing it, and placing the sealed triple laminated bag inside a closed high density polyethylene (HDPE) container and storing in controlled environment chamber at 25° C. and/or 40° C.

Cc1ccc(Sc2ccccc2N2CCNCC2)c(C)c1 [amorphous vortioxetine free base, 1-{2-[(2,4-dimethylphenyl)sulfanyl]phenyl}piperazine]
stability of amorphous form (physical change from amorphous form to crystalline form): stable under normal stability conditions
